Read-outs that look alike come from different tables or passages of the source.
How the values were obtained:
Assay type in all cases: cell-based
[1] = test system: HCV NS3 protease variant replicon A156T; test: 2-Day HCV Replicon IC50 Assay, A156T
Method: (§1) Huh-7 cells were propagated in Dulbecco's modified Eagle's medium (DMEM, JRH Biosciences, Lenexa, Kans.) supplemented with 10% heat-inactivated FBS (fetal bovine serum), 2 mM L-glutamine, and nonessential amino acids (JRH). The cells were transfected with an in vitro transcribed HCV replicon RNA identical to replicon 1377neo/NS3-3′/wt as described by Lohmann et al. (1999). Stable cell clones were selected and maintained in the presence of 250 μg/mL G418 (Invitrogen, Carlsbad, Calif.). […] The HCV NS3 protease variant replicons were constructed in the background of the mADE wild-type replicon as described previously [Chao Lin et al., “In Vitro Resistance Studies of Hepatitis C Virus Serine Protease Inhibitors, VX-950 and BILN 2061: Structural Analysis Indicates Different Resistance Mechanisms,” Journal of Biological Chemistry, 279(17); pp. 17508-17514 (2004)]. The replicon cells were propagated in DMEM supplemented with 10% FBS, 2 mM L-glutamine, nonessential amino acids, and 250 μg/mL G418. The cells were split twice per week in fresh media upon reaching confluence. There are approximately 200-300 copies of HCV RNA per 24-2 replicon cell.
(§2) HCV replicon RNA from cells was measured using the Quantigene Discover XL kit (Panomics Inc., Fremont Calif.) as per the manufacturer's instructions. Briefly, compound-treated replicon cells were lysed and immobilized on to capture plates using HCV specific oligonucleotides (designed based on the 5′ UTR region of HCV 1b genome sequence AJ238799 in the GenBank database) over night and the relative amounts of captured RNA was measured using oligonucleotide probe sets as per the manufacturer's instructions.
(§3) On the day prior to the assay, 10,000 replicon cells were plated per well of a 96-well plate and allowed to attach and grow overnight in DMEM (Invitrogen, Carlsbad, Calif.) supplemented with 10% heat-inactivated FBS (JRH Biosciences, Lenexa, Kans.), 2 mM L-glutamine (Invitrogen), nonessential amino acids (Invitrogen) and 250 μg/ml G418 (Invitrogen). Next day, the medium was removed and antiviral agents that were serially diluted in DMEM containing 2% FBS and 0.5% DMSO (Sigma Chemical Co., St. Louis, Mo.) without G418, was added. The replicon cells were incubated with the antiviral agents for 48 h. HCV replicon RNA from cells was measured using the Quantigene Discover XL kit (Panomics Inc., Fremont Calif.) as per the manufacturer's instructions. Briefly, compound-treated replicon cells were lysed and immobilized onto capture plates using HCV specific oligonucleotides overnight and the relative amounts of captured RNA was measured using oligonucleotide probe sets as per the manufacturer's instructions. Unless indicated otherwise, each data point represents the average of three replicates. The IC50 is the concentration of the compound at which the HCV replicon RNA level in cells is reduced by 50% as compared to the untreated replicon cell controls. To monitor the effect of compounds on cell proliferation or cell viability, replicon cells were treated with serially diluted compounds for 48 h, after which cell viability was determined using a CellTiter Glo assay (Promega, Madison, Wis.). Each CC50 is derived from at least two replicates and is the concentration of the compound at which the number of viable cells is reduced by 50% as compared to untreated cell controls. The IC50 and CC50 was determined using 4-parameter curve fitting in the SoftMax Pro program (Molecular Devices, Sunnyvale, Calif.).
(§4) The sensitivity of NS3 protease variants to ribavirin and interferon was assessed in a 2-Day HCV Replicon IC50 Assay.

[2] = test system: HCV replicon cells (wild-type clone 24-2, Huh-7); test: 2-day Replicon assay with bDNA quantitation, checkerboard combination (Bliss independence / MacSynergy); conditions: VX-950 in the checkerboard experiment with the named polymerase inhibitor, read-out: VX-950 IC50
Method: Huh-7 cells were propagated in Dulbecco's modified Eagle's medium (DMEM, JRH Biosciences, Lenexa, Kans.) supplemented with 10% heat-inactivated FBS (fetal bovine serum), 2 mM L-glutamine, and nonessential amino acids (JRH). The cells were transfected with an in vitro transcribed HCV replicon RNA identical to replicon 1377neo/NS3-3′/wt as described by Lohmann et al. (1999). Stable cell clones were selected and maintained in the presence of 250 μg/mL G418 (Invitrogen, Carlsbad, Calif.). One of the clones, 24-2, was used as the wild-type in the subsequent HCV replicon assays for combination studies. The HCV NS3 protease variant replicons were constructed in the background of the mADE wild-type replicon as described previously [Chao Lin et al., “In Vitro Resistance Studies of Hepatitis C Virus Serine Protease Inhibitors, VX-950 and BILN 2061: Structural Analysis Indicates Different Resistance Mechanisms,” Journal of Biological Chemistry, 279(17); pp. 17508-17514 (2004)]. The replicon cells were propagated in DMEM supplemented with 10% FBS, 2 mM L-glutamine, nonessential amino acids, and 250 μg/mL G418. The cells were split twice per week in fresh media upon reaching confluence. There are approximately 200-300 copies of HCV RNA per 24-2 replicon cell.
as §2, §3
The effects of drug-drug combinations were evaluated using the Bliss independence model [W. R. Greco et al., “The search for synergy: a critical review from a response surface perspective,” Pharmacol. Rev., 47, pp. 331-385 (1995)]. The experimental data were analyzed by using MacSynergy, a three-dimensional analytical method developed by Prichard and Shipman [M. N. Prichard and C. […]

[3] = test system: HCV NS3 protease variant replicon T54A; test: microbe, parasite or virus in culture
Method: as §1, §2, §3, §4

[4] = test system: HCV NS3 protease variant replicon V36M; test: microbe, parasite or virus in culture
Method: as §1, §2, §3, §4

[5] = test system: HCV NS3 protease variant replicon V36M+R155K; test: microbe, parasite or virus in culture; conditions: V36M-R155K; ratio of mutant IC50 to Wild type IC50 for the same inhibitor
Method: as §1, §2, §3, §4

[6] = test system: HCV NS3 protease variant replicon V36A; test: microbe, parasite or virus in culture
Method: as §1, §2, §3, §4

[7] = test system: HCV NS3 protease variant replicon R155K; test: microbe, parasite or virus in culture
Method: as §1, §2, §3, §4

[8] = Hepatitis C virus, read-out: Avg. IC50 ± STDEV

## CCC[C@H](NC(=O)[C@@H]1[C@H]2CCC[C@H]2CN1C(=O)[C@@H](NC(=O)[C@@H](NC(=O)c1cnccn1)C1CCCCC1)C(C)(C)C)C(=O)C(=O)NC1CC1 [VX-950]
[1]; A156T, ratio of mutant IC50 to Wild type IC50 for the same inhibitor
  Fold Change: >65.2
[1]; [8]
  IC50: > 30 µM
[2]; Hepatitis C virus, Huh-7, 48 h
  IC50: 0.31 µM
[2]; 48 h, with polymerase inhibitor of Formula I
  IC50: 0.42 µM
[2]; 48 h, with polymerase inhibitor of Formula II
  IC50: 0.34 µM
[3]; [8]
  IC50: 3.04 ± 0.819 µM
[3]; T54A, ratio of mutant IC50 to Wild type IC50 for the same inhibitor
  Fold Change: 6.6 ± 1.8
[4]; [8]
  IC50: 3.38 ± 0.775 µM
[4]; V36M, ratio of mutant IC50 to Wild type IC50 for the same inhibitor
  Fold Change: 7.3 ± 1.7
[5]
  Fold Change: ≧65.2
[6]; [8]
  IC50: 3.57 ± 1.05 µM
[6]; V36A, ratio of mutant IC50 to Wild type IC50 for the same inhibitor
  Fold Change: 7.7 ± 2.3
[7]; [8]
  IC50: 3.59 ± 0.283 µM
[7]; R155K, ratio of mutant IC50 to Wild type IC50 for the same inhibitor
  Fold Change: 7.8 ± 0.6

Source: patent US8258116B2, “Combination therapy for the treatment of HCV infection” (Vertex Pharmaceuticals Incorporated, priority 2007, dated 2012)
